What was measured:
Type in all cases: cell-based
[1] = test system: Mel-Ab melanin cells; assay: Cytotoxicity test, crystal violet staining of Mel-Ab cells; conditions: 24 hours, under the concentration of 100 uM, FIG. 4
Description: In order to investigate cytotoxicity of terrein compound of the present invention, Mel-Ab cells were treated with the terrein compound.
Particularly, Mel-Ab melanin cells were cultured in DMEM medium supplemented with 10% fetal bovine serum (FBS), 100 nM phobol 12-myristate 13-acetate, 1 nM cholera toxin, 50 ug/ml of streptomycin and 50 U/ml of penicillin under the condition of 5% CO2, 37° C.
Mel-Ab melanin cells cultured above were treated with terrein compound at different concentrations (0, 10, 25, 50, 75, 100 uM) for 24 hours, followed by further culture. Then, medium was removed. Cells were stained with 0.5 ml of 0.1% crystal violet and Mel-Ab melanin cells were checked. Crystal violet was removed by washing several times. Crystal violet remaining in cells was extracted by using 1.0 ml of 95% ethanol. OD590 of the extracted crystal violet was measured by ELISA reader in order to investigate vitality of cells.

[2] = test system: Mel-Ab melanin cells; assay: Melanin biosynthesis inhibiting effect in Mel-Ab melanin cells; conditions: for melanin biosynthesis inhibition: terrein 0-100 uM, kojic acid 0-100 uM, FIG. 5 and FIG. 6
Description: Particularly, Mel-Ab melanin cells were cultured in DMEM medium supplemented with 10% fetal bovine serum (FBS), 100 nM phobol 12-myristate 13-acetate, 1 nM cholera toxin, 50 ug/ml of streptomycin and 50 U/ml of penicillin under the condition of 5% CO2, 37° C. Mel-Ab melanin cells cultured in the above experimental example 1 were treated respectively with terrein compound and kojic acid, a conventional whitening agent, at different concentrations (0, 10, 25, 50, 75 and 100 uM of terrein compound and 0, 1, 10 and 100 uM of kojic acid). Both Mel-Ab melanin cells cultured under general culture conditions and Mel-Ab melanin cells treated with terrein compound of the present invention were observed under a microscope for comparison, and the result was shown in FIG. 7.

[3] = test system: ERK (extracellular signal-regulated kinase); assay: ERK activation in Mel-Ab melanin cells by Western blot; conditions: 100 uM
Description: (§1) In order to investigate melanin biosynthesis inhibiting mechanism of terrein compound of the present invention, Mel-Ab melanin cells cultured above were treated with 100 uM of terrein compound. And at each time point of 0, 2, 10, 30, 60, 180, and 360 minute, ERK (extracellular signal-regulated kinase) activation and MITF (microphthalmia-associated transcription factor) decomposition were investigated by Western blot.

[4] = test system: MITF (microphthalmia-associated transcription factor); assay: MITF decomposition in Mel-Ab melanin cells by Western blot; conditions: 100 uM, with ERK activation
Description: as §1

## C/C=C/C1=CC(=O)C(O)C1O (stereo not drawn) [terrein compound, 4,5-dihydroxy-3-propenyl-2-cyclopenten-1-one]
[1]
  cytotoxicity (vitality of cells, OD590 of crystal violet): no cytotoxicity
[2]; both at 10 uM
  melanin biosynthesis inhibiting effect relative to kojic acid: 10 times
[2]; dose-dependently, FIG. 7
  dark melanin of cells observed under a microscope: clearly decreased
[2]
  melanin biosynthesis inhibition: inhibited melanin biosynthesis dose-dependently
[3]
  duration of ERK activation: ≥ 6 h
  time from treatment to ERK1 and ERK2 activation: 2 to 10 min
[3]; FIG. 8
  ERK1 and ERK2 activation: activated fast
[4]
  expression of MITF: decreased

## O=c1cc(CO)occ1O [kojic acid, reference compound]
[2]
  melanin biosynthesis inhibition: inhibited melanin biosynthesis dose-dependently

— patent US20070128136A1, “Terrein compound having melanin biosynthesis inhibitors and its preparation” (priority 2003, published 2007)
